# Assay results as given in patent US11236084B2, “Substituted azaindoline derivatives as NIK inhibitors” (Janssen Pharmaceutica NV, priority 2017, dated 2022).
# Read-outs that look alike come from different tables or passages of the source.
# Target: recombinant human NF-kappaB-inducing kinase (NIK/MAP3K14) (Homo sapiens, UniProt Q99558)
# Assay: Biological Assay B: inhibition of auto-phosphorylation of recombinant human NIK/MAP3K14 (AlphaScreen), performed at 2 locations
# Type: biochemical
# Settings: averaged values
# Procedure: Inhibition of Auto-Phosphorylation of Recombinant Human NF-kappaB-Inducing Kinase (NIK/MAP3K14) Activity (AlphaScreen®)
# NIK/MAP3K14 auto-phosphorylation activity was measured using the AlphaScreen® (αscreen) format (Perkin Elmer). All compounds tested were dissolved in dimethyl sulfoxide (DMSO) and further dilutions were made in assay buffer. Final DMSO concentration was 1% (v/v) in assays. Assay buffer was 50 mM Tris pH 7.5 containing 1 mM EGTA (ethylene glycol tetraacetic acid), 1 mM DTT (dithiothreitol), 0.1 mM Na3VO4, 5 mM MgCl2, 0.01% Tween® 20. Assays were carried out in 384 well Alphaplates (Perkin Elmer). Incubations consisted of compound, 25 microM Adenosine-5′-triphosphate (ATP), and 0.2 nM NIK/MAP3K14. Incubations were initiated by addition of GST-tagged NIK/MAP3K14 enzyme, carried out for 1 h at 25° C. and terminated by addition of stop buffer containing anti-phospho-IKK Ser176/180 antibody. Protein A Acceptor and Glutathione-Donor beads were added before reading using an EnVision® Multilabel Plate Reader (Perkin Elmer). Signal obtained in the wells containing blank samples was subtracted from all other wells and IC50's were determined by fitting a sigmoidal curve to % inhibition of control versus Log10 compound concentration.
# Assay B was performed at 2 different locations.
# Data for the compounds of the invention in the above assays are provided in Table A (the values in Table are averaged values over all measurements on all batches of a compound; values as IC50 (nM)). (‘n.c.’ means not calculated: ‘Co.’ means compound)
# [1] = location 1, AlphaScreen auto-phosphorylation, read-out: Assay B location 1 IC50
# [2] = location 2, AlphaScreen auto-phosphorylation, read-out: Assay B location 2 IC50
# Sequence of recombinant human NF-kappaB-inducing kinase (NIK/MAP3K14) (Q99558 whole entry): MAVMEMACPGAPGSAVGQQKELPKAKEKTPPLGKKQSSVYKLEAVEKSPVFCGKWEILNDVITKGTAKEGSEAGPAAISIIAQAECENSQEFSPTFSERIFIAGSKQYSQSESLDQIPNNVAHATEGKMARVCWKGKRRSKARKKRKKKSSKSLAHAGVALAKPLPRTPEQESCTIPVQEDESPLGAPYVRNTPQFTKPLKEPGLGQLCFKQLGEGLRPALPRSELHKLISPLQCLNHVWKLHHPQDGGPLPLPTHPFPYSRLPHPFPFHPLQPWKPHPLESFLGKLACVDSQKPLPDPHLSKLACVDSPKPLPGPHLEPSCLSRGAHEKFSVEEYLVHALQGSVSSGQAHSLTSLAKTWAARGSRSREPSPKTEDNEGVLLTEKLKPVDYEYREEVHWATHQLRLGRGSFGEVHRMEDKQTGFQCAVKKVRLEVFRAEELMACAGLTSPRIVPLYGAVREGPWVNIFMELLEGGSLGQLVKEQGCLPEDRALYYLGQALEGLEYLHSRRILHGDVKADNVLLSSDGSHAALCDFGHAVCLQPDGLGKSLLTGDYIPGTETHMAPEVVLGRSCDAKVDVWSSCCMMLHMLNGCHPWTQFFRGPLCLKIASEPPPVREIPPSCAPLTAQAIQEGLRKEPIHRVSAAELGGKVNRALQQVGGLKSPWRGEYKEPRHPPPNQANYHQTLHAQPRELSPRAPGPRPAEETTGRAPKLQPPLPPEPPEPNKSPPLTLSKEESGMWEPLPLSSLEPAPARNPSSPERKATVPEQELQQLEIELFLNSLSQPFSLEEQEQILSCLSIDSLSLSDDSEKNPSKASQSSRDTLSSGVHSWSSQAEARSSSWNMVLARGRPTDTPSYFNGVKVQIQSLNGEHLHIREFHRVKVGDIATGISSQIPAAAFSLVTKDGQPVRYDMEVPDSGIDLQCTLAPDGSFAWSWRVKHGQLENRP
"IC50 (location 1, NIK auto-phosphorylation, AlphaScreen, read-out: Assay B location 1 IC50)",IC50 [1],IC50 [2],SMILES
33.9 nM,,,"COc1cc(C(=O)NC2CCOCC2)ccc1Nc1ncc(F)c(-c2cnc3c(c2)C(C)(CO)CN3)n1 (single isomer, unassigned) [Compound 352]"
,10 nM,2.2 nM,COc1cc(N2CC3(CCOCC3)C2)c(Cl)cc1Nc1nccc(-c2cnc3c(c2)C(C)(CO)CN3)n1 (centres unmarked) [Compound 3]
,6.3 nM,4.1 nM,COCCN(C)c1cc(OC)c(Nc2nccc(-c3cnc4c(c3)C(C)(CO)CN4)n2)cc1Cl (centres unmarked) [Compound 5]
,4.7 nM,4 nM,COc1cc(N2CCOCC2)c(Cl)cc1Nc1nccc(-c2cnc3c(c2)C(C)(CO)CN3)n1 (centres unmarked) [Compound 6]
,15.5 nM,2.6 nM,COc1cc(N2CC3(CCOCC3)C2)c(F)cc1Nc1nccc(-c2cnc3c(c2)C(C)(CO)CN3)n1 (centres unmarked) [Compound 7]
,5.3 nM,1.8 nM,COc1cc(C(=O)N2CCC(OC)CC2)c(Cl)cc1Nc1nccc(-c2cnc3c(c2)C(C)(C)CN3)n1 [Compound 9]
,6.2 nM,0.7 nM,COc1cc(N)c(Cl)cc1Nc1nccc(-c2cnc3c(c2)C(C)(CO)CN3)n1 (centres unmarked) [Compound 11]
,,1.6 nM,CC1(C)CNc2ncc(-c3ccnc(Nc4ccc(C(=O)NC5CNC5)cc4)n3)cc21 [Compound 34]
,,11.2 nM,CNC(=O)c1ccc(Nc2nccc(-c3cnc4c(c3)C(C)(CO)CN4)n2)c(OC)c1 (centres unmarked) [Compound 152]
,,19.1 nM,CCC1(CC#N)CNc2ncc(-c3ccnc(Nc4ccc(C(=O)NC5CCOCC5)cc4OC)n3)cc21 (centres unmarked) [Compound 154]
,,38 nM,CCC1(CC#N)CNc2ncc(-c3ccnc(Nc4ccc(C(=O)N5CCC(OC)CC5)cc4OC)n3)cc21 (centres unmarked) [Compound 155]
,,15.1 nM,CCC1(CCO)CNc2ncc(-c3ccnc(Nc4ccc(C(=O)NC5CCOCC5)cc4OC)n3)cc21 (centres unmarked) [Compound 158]
,,12.6 nM,CCC1(CCO)CNc2ncc(-c3ccnc(Nc4ccc(C(=O)N5CCC(OC)CC5)cc4OC)n3)cc21 (centres unmarked) [Compound 159]
,,18.6 nM,COc1cc(C(=O)NC(C)(C)CO)ccc1Nc1nccc(-c2cnc3c(c2)C(C)(CO)CN3)n1 (centres unmarked) [Compound 160]
,,12 nM,COc1cc(-c2ncc[nH]2)ccc1Nc1nccc(-c2cnc3c(c2)C(C)(CO)CN3)n1 (centres unmarked) [Compound 163]
,,5.6 nM,COc1ccc(Nc2nccc(-c3cnc4c(c3)C(C)(CO)CN4)n2)c(OC)c1 (centres unmarked) [Compound 164]
,,23.4 nM,COc1cc(CN2CCOCC2)ccc1Nc1nccc(-c2cnc3c(c2)C(C)(CO)CN3)n1 (centres unmarked) [Compound 165]
,,18.2 nM,COCc1ccc(Nc2nccc(-c3cnc4c(c3)C(C)(CO)CN4)n2)c(OC)c1 (centres unmarked) [Compound 166]
,,19.1 nM,CCc1ccccc1Nc1nccc(-c2cnc3c(c2)C(C)(CO)CN3)n1 (centres unmarked) [Compound 167]
,,3.6 nM,COc1cccc(Nc2nccc(-c3cnc4c(c3)C(C)(CO)CN4)n2)c1 (centres unmarked) [Compound 168]
,,8.9 nM,COc1cc(-c2cnn(C)c2)ccc1Nc1nccc(-c2cnc3c(c2)C(C)(CO)CN3)n1 (centres unmarked) [Compound 169]
,45.7 nM,27.6 nM,COc1cc(-c2cncn2C)ccc1Nc1nccc(-c2cnc3c(c2)C(C)(CO)CN3)n1 (centres unmarked) [Compound 170]
,,12.3 nM,COc1cc(N2CCOCC2)ccc1Nc1nccc(-c2cnc3c(c2)C(C)(CO)CN3)n1 (centres unmarked) [Compound 171]

"IC50 (location 1, NIK auto-phosphorylation, AlphaScreen, read-out: Assay B location 1 IC50)",IC50 [1],IC50 [2],SMILES
,75.9 nM,71.6 nM,COc1cc(Cl)ccc1Nc1nccc(-c2cnc3c(c2)C(C)(CO)CN3)n1 (centres unmarked) [Compound 172]
,,10 nM,COc1ccc(C(F)(F)F)cc1Nc1nccc(-c2cnc3c(c2)C(C)(CO)CN3)n1 (centres unmarked) [Compound 173]
,,32.4 nM,CCOc1ccccc1Nc1nccc(-c2cnc3c(c2)C(C)(CO)CN3)n1 (centres unmarked) [Compound 174]
,,33.9 nM,CC(C)Oc1ccccc1Nc1nccc(-c2cnc3c(c2)C(C)(CO)CN3)n1 (centres unmarked) [Compound 175]
,,12.6 nM,CC1(CO)CNc2ncc(-c3ccnc(Nc4ccccc4Br)n3)cc21 (centres unmarked) [Compound 176]
,,32.4 nM,CC1(CO)CNc2ncc(-c3ccnc(Nc4ccccc4F)n3)cc21 (centres unmarked) [Compound 177]
,,14.1 nM,CC1(CO)CNc2ncc(-c3ccnc(Nc4ccccc4Cl)n3)cc21 (centres unmarked) [Compound 178]
,,22.4 nM,Cc1ccccc1Nc1nccc(-c2cnc3c(c2)C(C)(CO)CN3)n1 (centres unmarked) [Compound 179]
,,204 nM,CC1(CO)CNc2ncc(-c3ccnc(Nc4ccccc4C(F)(F)F)n3)cc21 (centres unmarked) [Compound 180]
,,2.2 nM,COc1ccc(Br)cc1Nc1nccc(-c2cnc3c(c2)C(C)(CO)CN3)n1 (centres unmarked) [Compound 181]
,,3 nM,COc1ccc(F)cc1Nc1nccc(-c2cnc3c(c2)C(C)(CO)CN3)n1 (centres unmarked) [Compound 182]
,,1.4 nM,COc1ccc(Cl)cc1Nc1nccc(-c2cnc3c(c2)C(C)(CO)CN3)n1 (centres unmarked) [Compound 183]
,,3.4 nM,COc1ccc(C)cc1Nc1nccc(-c2cnc3c(c2)C(C)(CO)CN3)n1 (centres unmarked) [Compound 184]
,,3.8 nM,COc1cc(CCO)ccc1Nc1nccc(-c2cnc3c(c2)C(C)(CO)CN3)n1 (centres unmarked) [Compound 185]
,,40.7 nM,COc1cc(CN(C)C)ccc1Nc1nccc(-c2cnc3c(c2)C(C)(CO)CN3)n1 (centres unmarked) [Compound 186]
,,18.2 nM,COc1cc(N2CCN(C)CC2)ccc1Nc1nccc(-c2cnc3c(c2)C(C)(CO)CN3)n1 (centres unmarked) [Compound 187]
,,5.5 nM,COc1cc(Nc2nccc(-c3cnc4c(c3)C(C)(CO)CN4)n2)ccc1-c1cnn(C)c1 (centres unmarked) [Compound 188]
,,6.9 nM,COc1cc(Cn2cccn2)ccc1Nc1nccc(-c2cnc3c(c2)C(C)(CO)CN3)n1 (centres unmarked) [Compound 189]
,,2.2 nM,COc1ccc(C#N)cc1Nc1nccc(-c2cnc3c(c2)C(C)(CO)CN3)n1 (centres unmarked) [Compound 190]
,,~27 nM,COc1cc(-n2cccn2)ccc1Nc1nccc(-c2cnc3c(c2)C(C)(CO)CN3)n1 (centres unmarked) [Compound 191]
,,26.9 nM,COc1cc(-c2ccn(C)n2)ccc1Nc1nccc(-c2cnc3c(c2)C(C)(CO)CN3)n1 (centres unmarked) [Compound 192]
,,22.9 nM,COc1cc(Nc2nccc(-c3cnc4c(c3)C(C)(CO)CN4)n2)cc(C(F)(F)F)c1 (centres unmarked) [Compound 193]
,,21.9 nM,COc1cc(CCN2CCOCC2)ccc1Nc1nccc(-c2cnc3c(c2)C(C)(CO)CN3)n1 (centres unmarked) [Compound 194]

"IC50 (location 1, NIK auto-phosphorylation, AlphaScreen, read-out: Assay B location 1 IC50)",IC50 [1],IC50 [2],SMILES
,,49 nM,COc1ccc(C2CC2)cc1Nc1nccc(-c2cnc3c(c2)C(C)(CO)CN3)n1 (centres unmarked) [Compound 195]
,,4 nM,CC1(CO)CNc2ncc(-c3ccnc(Nc4cc(Cl)ccc4Cl)n3)cc21 (centres unmarked) [Compound 196]
,,11.2 nM,CC1(CO)CNc2ncc(-c3ccnc(Nc4cc(F)ccc4Cl)n3)cc21 (centres unmarked) [Compound 197]
,,8.5 nM,Cc1ccc(F)cc1Nc1nccc(-c2cnc3c(c2)C(C)(CO)CN3)n1 (centres unmarked) [Compound 198]
,,4.5 nM,Cc1ccc(Cl)cc1Nc1nccc(-c2cnc3c(c2)C(C)(CO)CN3)n1 (centres unmarked) [Compound 199]
,,132 nM,COc1cc(C2COCCN2C)ccc1Nc1nccc(-c2cnc3c(c2)C(C)(CO)CN3)n1 (centres unmarked) [Compound 200]
,,26.9 nM,COc1cc(-n2cnc(C)c2)ccc1Nc1nccc(-c2cnc3c(c2)C(C)(CO)CN3)n1 (centres unmarked) [Compound 202]
,,30.9 nM,COc1cc(-c2ccnn2C)ccc1Nc1nccc(-c2cnc3c(c2)C(C)(CO)CN3)n1 (centres unmarked) [Compound 203]
,,10.7 nM,COc1ccc(CO)cc1Nc1nccc(-c2cnc3c(c2)C(C)(CO)CN3)n1 (centres unmarked) [Compound 204]
,,5.1 nM,CC1(CO)CNc2ncc(-c3ccnc(Nc4cc(C#N)ccc4Cl)n3)cc21 (centres unmarked) [Compound 205]
,,38 nM,CCc1ccc(OC)c(Nc2nccc(-c3cnc4c(c3)C(C)(CO)CN4)n2)c1 (centres unmarked) [Compound 206]
,,16.6 nM,COc1cc(-n2cncn2)ccc1Nc1nccc(-c2cnc3c(c2)C(C)(CO)CN3)n1 (centres unmarked) [Compound 207]
,,5 nM,Cc1ccc(C#N)cc1Nc1nccc(-c2cnc3c(c2)C(C)(CO)CN3)n1 (centres unmarked) [Compound 208]
,,110 nM,COc1ccc(C(C)C)cc1Nc1nccc(-c2cnc3c(c2)C(C)(CO)CN3)n1 (centres unmarked) [Compound 209]
,,30.9 nM,Cc1ccc(OC(F)(F)F)cc1Nc1nccc(-c2cnc3c(c2)C(C)(CO)CN3)n1 (centres unmarked) [Compound 210]
,,49 nM,CC(=O)Nc1ccc(C)c(Nc2nccc(-c3cnc4c(c3)C(C)(CO)CN4)n2)c1 (centres unmarked) [Compound 211]
,,22.4 nM,Cc1cccc(Nc2nccc(-c3cnc4c(c3)C(C)(CO)CN4)n2)c1C (centres unmarked) [Compound 212]
,,13.8 nM,COc1cc(N2CCC(OC)CC2)ccc1Nc1nccc(-c2cnc3c(c2)C(C)(CO)CN3)n1 (centres unmarked) [Compound 213]
,,12 nM,COc1cccc(Nc2nccc(-c3cnc4c(c3)C(C)(CO)CN4)n2)c1C (centres unmarked) [Compound 214]
,,12.9 nM,COc1cc(N2CCC(C#N)CC2)ccc1Nc1nccc(-c2cnc3c(c2)C(C)(CO)CN3)n1 (centres unmarked) [Compound 215]
,,47.9 nM,Cc1cc(N2CCOCC2)ccc1Nc1nccc(-c2cnc3c(c2)C(C)(CO)CN3)n1 (centres unmarked) [Compound 216]
,,27.5 nM,COc1cc(N2CCC(F)(F)CC2)ccc1Nc1nccc(-c2cnc3c(c2)C(C)(CO)CN3)n1 (centres unmarked) [Compound 217]
,,15.1 nM,COc1cc(OCCN2CCOCC2)ccc1Nc1nccc(-c2cnc3c(c2)C(C)(CO)CN3)n1 (centres unmarked) [Compound 218]
